Reference: patent publication US20030162834A1, “Natural physiologically active material effective on fish diseases and fish food containing the material” (priority 1998, published 2003)

Assay: Trial 9: tolerance of tiger puffer to immersion in seawater containing octanoic acid
Type: in vivo
Text: Each group, i.e., 130 g of tiger puffer, was immersed in 2-liter seawater containing octanoic acid at 100 ppm, 200 ppm and 400 ppm, followed by observation.

**Q.** What does the source list for CCCCCCCC(=O)O [octanoic acid]?
**A.** condition when returned to seawater (after immersion at 100 ppm): no abnormality; time to restore to a normal condition after return to seawater (after immersion at 200 ppm): approximately 30 minutes; time to restore to a normal condition after return to seawater (after immersion at 400 ppm, almost dying condition): approximately 60 minutes; observation of fish after 60 minutes (immersion, 100 ppm octanoic acid in seawater): a swimming activity of the fish was slightly lowered, but no abnormality was found in the fish; time at which fish began to lie down (immersion, 200 ppm): 60 min; time until swimming activity was apparently lowered (immersion, 200 ppm): 30 min; time at which fish became almost dying (immersion, 400 ppm): 9 min; time at which fish began to lie down (immersion, 400 ppm): 3 min; observation of fish returned to seawater (observed for 7 days after immersion): no abnormality was found
